Assay results taken from PubChem BioAssay (NCI).
Where “and” joins values, the source holds several entries; their conditions need not be identical. Identical values can stand only once.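 Five concentrations, 48 hours, 96-well plates. GI50 marks 50% less growth. TGI: concentration producing complete growth inhibition.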

Key:
Assay in all cases: NCI anticancer screen, dose series, 48 h
[1] = tested on: SK-MEL-5 melanoma
[2] = tested on: SN12C renal
[3] = tested on: MDA-MB-435
[4] = tested on: SK-MEL-28 melanoma
[5] = tested on: EKVX NSCLC
[6] = tested on: SK-MEL-2 melanoma
[7] = tested on: DU-145 prostate
[8] = tested on: SF-295 CNS
[9] = tested on: SW-620 colon
[10] = tested on: A498 renal

O=C1CSC2(CCN(CCCN3c4ccccc4Sc4ccc(Cl)cc43)CC2)N1
TGI [1]: 23 µM
TGI [2]: 22.7 µM
TGI [3]: 23.5 µM
TGI [4]: 28.9 µM
TGI [5]: 22.7 µM
TGI [6]: 31 µM
TGI [7]: 24.2 µM
TGI [8]: 22 µM
TGI [9]: 23.6 µM
TGI [10]: 31 µM

O=C(CSC1=NCCN1)c1ccccc1
TGI [1]: > 100 µM
TGI [2]: > 100 µM
TGI [3]: > 100 µM
TGI [4]: > 100 µM
TGI [5]: > 100 µM
TGI [6]: > 100 µM
TGI [7]: > 100 µM
TGI [8]: > 100 µM
TGI [9]: > 100 µM
TGI [10]: > 100 µM

COC1C(O)=C2C(=O)OC(C)(O)/C=C/C=C\C=C/C=C/C(c3ccccc3)NC(=O)/C=C/C=C/C=C/C=C/C2(C)C1O (centres undefined)
TGI [1]: 0.164 µM
TGI [2]: 0.0649 µM and 0.0906 µM
TGI [3]: 0.142 µM
GI50 [4]: 0.257 µM
TGI [4]: 0.175 µM and 0.927 µM
GI50 [5]: 0.0624 µM
TGI [5]: 0.122 µM and 0.237 µM
GI50 [6]: 0.0929 µM
TGI [6]: 0.235 µM and 0.318 µM
TGI [7]: 0.0769 µM and 0.123 µM
GI50 [8]: 0.0296 µM
TGI [8]: 0.0747 µM and 0.206 µM
TGI [9]: 0.0498 µM
TGI [10]: 0.0976 µM

CC1(C)N=C(N)N=C(N)N1c1cccc(CSc2ccccc2)c1
TGI [1]: 13.5 µM
TGI [2]: > 100 µM
TGI [3]: > 100 µM
TGI [4]: > 100 µM
TGI [5]: > 100 µM
TGI [6]: > 100 µM
TGI [7]: > 100 µM
TGI [8]: > 100 µM
TGI [9]: > 100 µM
TGI [10]: > 100 µM

COc1ccc2nc3c([N+](=O)[O-])ccc4c3c(c2c1)NCCN4C
TGI [1]: 2.86 µM
TGI [2]: 9.29 µM
TGI [3]: 2.4 µM
TGI [4]: 6.5 µM
TGI [5]: 6.61 µM
TGI [7]: 6.92 µM
TGI [8]: 7.58 µM
TGI [9]: 4.76 µM
TGI [10]: 3.85 µM

Cc1c2cc[n+](C)cc2c(C)c2c1[nH]c1ccccc12
TGI [1]: 5.92 µM and 4.85 µM
TGI [2]: 1.29 µM and 1.2 µM
TGI [3]: > 100 µM
TGI [4]: 4.83 µM and 7.1 µM
TGI [5]: 11.1 µM and 14 µM
TGI [6]: 2.85 µM and 3.5 µM
TGI [7]: 24.9 µM
TGI [8]: 1.71 µM and 2.08 µM
TGI [9]: 54.6 µM and 47.5 µM
TGI [10]: 68.7 µM and 53.5 µM

CC(NCCS(=O)(=O)O)C(=O)O (centres undefined)
TGI [1]: > 100 µM
TGI [2]: > 100 µM
TGI [4]: > 100 µM
TGI [5]: > 100 µM
TGI [6]: > 100 µM
TGI [8]: > 100 µM
TGI [9]: > 100 µM
TGI [10]: > 100 µM

CCCCCCCCCC[C@@H](O)[C@@H]1CC[C@@H]([C@@H]2CC[C@@H]([C@@H](O)CCCCCCCCCCC(O)CC3=CC(C)OC3=O)O2)O1 (some centres undefined)
TGI [1]: 2.92 µM
TGI [2]: > 10 µM
TGI [4]: > 10 µM
TGI [5]: > 10 µM
TGI [7]: > 10 µM
TGI [8]: > 10 µM
TGI [9]: > 10 µM
TGI [10]: > 10 µM

c1ccc(N=NNNc2ccc(-c3nc4ccccc4[nH]3)cc2)cc1
TGI [1]: > 100 µM
TGI [2]: 98.1 µM
TGI [3]: > 100 µM
TGI [4]: > 100 µM
TGI [5]: > 100 µM
TGI [6]: 88.7 µM
TGI [7]: > 100 µM
TGI [8]: 68 µM
TGI [9]: > 100 µM
TGI [10]: > 100 µM

CN(C)Cc1cc(C(=O)O)cc(CN(C)C)c1O
TGI [1]: > 100 µM
TGI [2]: > 100 µM
TGI [3]: > 100 µM
TGI [4]: > 100 µM
TGI [5]: > 100 µM
TGI [6]: > 100 µM
TGI [7]: > 100 µM
TGI [8]: > 100 µM
TGI [9]: > 100 µM
TGI [10]: > 100 µM

COc1ccc(-c2cn3ccnc3c(-c3ccc4ncn(C5CCCCC5)c4c3)n2)cc1
GI50 [1]: 0.698 µM
TGI [1]: 3.2 µM
GI50 [2]: 2.11 µM
TGI [2]: > 100 µM
GI50 [3]: 0.312 µM
TGI [3]: > 100 µM
GI50 [4]: 2.1 µM
TGI [4]: > 100 µM
GI50 [5]: 3.04 µM
TGI [5]: > 100 µM
GI50 [6]: 0.944 µM
TGI [6]: > 100 µM
GI50 [7]: 1.07 µM
TGI [7]: > 100 µM
GI50 [9]: 0.734 µM
TGI [9]: > 100 µM
GI50 [10]: 0.742 µM
TGI [10]: > 100 µM

C=C[C@H]1CN2CC[C@H]1C[C@@H]2[C@@H](O)c1ccnc2ccccc12
TGI [1]: > 100 µM
TGI [2]: > 100 µM
TGI [3]: > 100 µM
TGI [4]: > 100 µM
TGI [5]: > 100 µM
TGI [6]: > 100 µM
TGI [7]: > 100 µM
TGI [8]: > 100 µM
TGI [9]: > 100 µM
TGI [10]: > 100 µM

O=C(O)C(Cc1cccs1)C(=O)O
TGI [1]: > 100 µM
TGI [2]: > 100 µM
TGI [3]: > 100 µM
TGI [4]: > 100 µM
TGI [5]: > 100 µM
TGI [6]: > 100 µM
TGI [7]: > 100 µM
TGI [9]: > 100 µM
TGI [10]: > 100 µM

Nc1nc(N)c2ncn(CC(CO)CC(c3ccccc3)P(=O)(O)O)c2n1 (centres undefined)
TGI [1]: > 100 µM
TGI [2]: > 100 µM
TGI [4]: > 100 µM
TGI [5]: > 100 µM
TGI [6]: > 100 µM
TGI [8]: > 100 µM
TGI [9]: > 100 µM
TGI [10]: > 100 µM

CN(C)c1ccc(C(c2ccc(N(C)C)cc2)c2ccc([N+](=O)[O-])cc2)cc1
TGI [1]: > 100 µM
TGI [2]: > 100 µM
TGI [3]: > 100 µM
TGI [4]: > 100 µM
TGI [5]: > 100 µM
TGI [6]: > 100 µM
TGI [7]: > 100 µM
TGI [8]: > 100 µM
TGI [9]: > 100 µM
TGI [10]: > 100 µM

N#CC(c1ccccc1)c1cccc2ccccc12 (centres undefined)
TGI [1]: 34.3 µM
TGI [2]: > 100 µM
TGI [3]: 44.1 µM
TGI [4]: > 100 µM
TGI [5]: > 100 µM
TGI [6]: 56.2 µM
TGI [7]: > 100 µM
TGI [8]: > 100 µM
TGI [9]: > 100 µM
TGI [10]: 76.5 µM
